Data reported in patent US8536097B2, “4-(4-haloalkyl-3-thiobenzoyl)pyrazoles and use thereof as herbicides” (Bayer Cropscience AG, priority 2010, dated 2013).

What was measured:
Assay type in all cases: in vivo
Viola tricolor [1] = assay: Pre-emergence herbicidal action against weed plants; conditions: scored after 3 to 4 weeks
Excerpt: (§1) Seeds or rhizome sections of mono- and dicotyledonous weed plants are set out in pots of 9 to 13 cm in diameter, in sandy loam soil, and are covered with soil. The herbicides, formulated as emulsifiable concentrates or dusts, are applied to the surface of the covering earth in the form of aqueous dispersions or suspensions or emulsions, at a water application rate of 300 to 800 I/ha (converted) in different doses. The pots are then maintained under glass under optimum conditions for the further cultivation of the plants. After 3 to 4 weeks under optimum growth conditions under glass, the trial plants are scored for the effect of the compounds according to the invention in comparison to compounds disclosed in the prior art. […] [table]

Avena fatua = assay: as above; conditions: dose 80 g a.c./ha, scored after 3 to 4 weeks
Excerpt: as §1

Cyperus serotinus = assay: as above; conditions: scored after 3 to 4 weeks
Excerpt: as §1

Matricaria inodora = assay: Post-emergence herbicidal action against weed plants; conditions: dose 80 g a.c./ha, scored after 3 to 4 weeks
Protocol: (§2) [table] 2. Post-Emergence Herbicidal Action Against Weed Plants Seeds of monocotyledonous and dicotyledonous weed plants are set out in cardboard pots in sandy loam soil, covered with soil, and cultivated under glass under good growth conditions. Two to three weeks after sowing, the trial plants are treated at the three-leaf stage. The compounds according to the invention, formulated as wettable powders or as emulsifiable concentrates, are sprayed onto the surface of the green parts of the plants, at a water application rate of 600 to 800 I/ha (converted). After the trial plants have stood for 3 to 4 weeks under optimum growth conditions under glass, the action of the compounds according to the invention is scored in comparison to compounds disclosed in the prior art.

Viola tricolor [2] = assay: as above; conditions: dose 320 g a.c./ha, scored after 3 to 4 weeks
Protocol: as §2

Amaranthus retroflexus = assay: as above; conditions: dose 320 g a.c./ha, scored after 3 to 4 weeks
Protocol: as §2

Setaria viridis = assay: as above; conditions: dose 80 g a.c./ha, scored after 3 to 4 weeks
Protocol: as §2

Alopecurus myosuroides = assay: Pre-emergence herbicidal action against weed plants; conditions: dose 320 g a.c./ha, scored after 3 to 4 weeks
Excerpt: as §1

For `Cc1c(C(=O)c2cnn(C)c2O)ccc(C(F)(F)F)c1[S+](C)[O-]` (centres unmarked) [1-9, known from WO 2008/125214], the “Herbicidal action against VIOTR” value (Viola tricolor [1]; dose 80 g a.c./ha) was 60%, the “Herbicidal action against AVEFA” value (Avena fatua) was 40% and the “Herbicidal action against CYPES” value (Cyperus serotinus; dose 80 g a.c./ha) was 50%.

With `Cc1c(C(=O)c2cnn(C)c2O)ccc(C(F)(F)F)c1S(C)(=O)=O` [1-4, known from WO 2008/125214] the “Herbicidal action against MATIN” value (Matricaria inodora) was 50%.

With `Cc1nn(C)c(O)c1C(=O)c1ccc(C(F)(F)C(F)(F)F)c([S+](C)[O-])c1C` (centres unmarked) [3-153] the “Herbicidal action against VIOTR” value (Viola tricolor [2]) was 80%, the “Herbicidal action against AMARE” value (Amaranthus retroflexus) was 80% and the “Herbicidal action against VIOTR” value (Viola tricolor [1]; dose 320 g a.c./ha) was 90%.

For `Cc1nn(C)c(O)c1C(=O)c1ccc(C(F)(F)C(F)(F)F)c(S(C)(=O)=O)c1C` [3-161], the “Herbicidal action against SETVI” value (Setaria viridis) was 100%, the “Herbicidal action against ALOMY” value (Alopecurus myosuroides) was 90% and the “Herbicidal action against CYPES” value (Cyperus serotinus; dose 320 g a.c./ha) was 80%.

With `Cc1nn(C)c(O)c1C(=O)c1ccc(C(F)(F)F)c([S+](C)[O-])c1C` (centres unmarked) [3-9, known from WO 2008/125214] the “Herbicidal action against VIOTR” value (Viola tricolor [2]) was 40%, the “Herbicidal action against AMARE” value (Amaranthus retroflexus) was 50% and the “Herbicidal action against VIOTR” value (Viola tricolor [1]; dose 320 g a.c./ha) was 40%.

For `Cc1c(C(=O)c2cnn(C)c2O)ccc(C(F)(F)C(F)(F)F)c1[S+](C)[O-]` (centres unmarked) [1-153], the “Herbicidal action against VIOTR” value (Viola tricolor [1]; dose 80 g a.c./ha) was 90%, the “Herbicidal action against AVEFA” value (Avena fatua) was 70% and the “Herbicidal action against CYPES” value (Cyperus serotinus; dose 80 g a.c./ha) was 100%.

For `Cc1c(C(=O)c2cnn(C)c2O)ccc(C(F)(F)C(F)(F)F)c1S(C)(=O)=O` [1-161], the “Herbicidal action against MATIN” value (Matricaria inodora) was 100%.

In the case of `Cc1nn(C)c(O)c1C(=O)c1ccc(C(F)(F)F)c(S(C)(=O)=O)c1C` [3-17, known from WO 2008/125214], the “Herbicidal action against SETVI” value (Setaria viridis) was 60%, the “Herbicidal action against ALOMY” value (Alopecurus myosuroides) was 50% and the “Herbicidal action against CYPES” value (Cyperus serotinus; dose 320 g a.c./ha) was 50%.
